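Values below derive from 48-hour exposures of cells grown in 96-well plates, with endpoints linearly interpolated between the two concentrations bracketing the appropriate inhibition level. GI50 is the concentration that inhibits growth by half. TGI denotes the concentration required for complete inhibition of growth.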
Legend:
Test in all cases: DTP human tumour cell line panel, 48 h
EKVX NSCLC = test system: EKVX NSCLC
MDA-MB-435 = test system: MDA-MB-435
RPMI-8226 leukemia = test system: RPMI-8226 leukemia
COLO 205 colon = test system: COLO 205 colon
SW-620 colon = test system: SW-620 colon
SK-OV-3 ovarian = test system: SK-OV-3 ovarian
SR leukemia = test system: SR leukemia
786-0 renal = test system: 786-0 renal
SNB-19 CNS = test system: SNB-19 CNS
KM12 colon = test system: KM12 colon
CCRF-CEM leukemia = test system: CCRF-CEM leukemia
U251 CNS = test system: U251 CNS
SK-MEL-2 melanoma = test system: SK-MEL-2 melanoma
DU-145 prostate = test system: DU-145 prostate
SN12C renal = test system: SN12C renal
SF-295 CNS = test system: SF-295 CNS
MCF7 breast = test system: MCF7 breast
SK-MEL-5 melanoma = test system: SK-MEL-5 melanoma
MOLT-4 leukemia = test system: MOLT-4 leukemia
CAKI-1 renal = test system: CAKI-1 renal
HL-60(TB) leukemia = test system: HL-60(TB) leukemia
LOX IMVI melanoma = test system: LOX IMVI melanoma
MDA-MB-231 breast = test system: MDA-MB-231 breast
OVCAR-3 ovarian = test system: OVCAR-3 ovarian
HCT-15 colon = test system: HCT-15 colon
TK-10 renal = test system: TK-10 renal
IGROV1 ovarian = test system: IGROV1 ovarian
OVCAR-4 ovarian = test system: OVCAR-4 ovarian
RXF 393 renal = test system: RXF 393 renal
SF-268 CNS = test system: SF-268 CNS
ACHN renal = test system: ACHN renal
MALME-3M melanoma = test system: MALME-3M melanoma
HCC-2998 colon = test system: HCC-2998 colon
HCT-116 colon = test system: HCT-116 colon
NCI/ADR-RES ovarian = test system: NCI/ADR-RES ovarian
A549 NSCLC = test system: A549 NSCLC
HS 578T breast = test system: HS 578T breast
SF-539 CNS = test system: SF-539 CNS
SNB-75 CNS = test system: SNB-75 CNS
HT29 colon = test system: HT29 colon
SK-MEL-28 melanoma = test system: SK-MEL-28 melanoma
PC-3 prostate = test system: PC-3 prostate
NCI-H460 lung = test system: NCI-H460 lung
HOP-62 NSCLC = test system: HOP-62 NSCLC
UACC-257 melanoma = test system: UACC-257 melanoma
OVCAR-8 ovarian = test system: OVCAR-8 ovarian
OVCAR-5 ovarian = test system: OVCAR-5 ovarian
UACC-62 melanoma = test system: UACC-62 melanoma
BT-549 breast = test system: BT-549 breast
NCI-H522 lung = test system: NCI-H522 lung
UO-31 renal = test system: UO-31 renal
HOP-92 NSCLC = test system: HOP-92 NSCLC
M14 melanoma = test system: M14 melanoma
T-47D breast = test system: T-47D breast
NCI-H226 lung = test system: NCI-H226 lung
K-562 leukemia = test system: K-562 leukemia
A498 renal = test system: A498 renal
NCI-H23 lung = test system: NCI-H23 lung

SMILES: COc1cc(C(=O)NC2CCN(C)CC2)ccc1Nc1ncc2c(n1)N(C1CCCC1)CC(F)(F)C(=O)N2C
- GI50 (EKVX NSCLC): 0.245 µM
- TGI (EKVX NSCLC): 17.5 µM
- GI50 (MDA-MB-435): < 0.01 µM
- TGI (MDA-MB-435): < 0.01 µM
- TGI (RPMI-8226 leukemia): 8.33 µM
- GI50 (COLO 205 colon): < 0.01 µM
- TGI (COLO 205 colon): 0.064 µM
- GI50 (SW-620 colon): < 0.01 µM
- TGI (SW-620 colon): 10.4 µM
- GI50 (SK-OV-3 ovarian): < 0.0133 µM
- TGI (SK-OV-3 ovarian): 0.761 µM
- GI50 (SR leukemia): < 0.01 µM
- TGI (SR leukemia): 0.448 µM
- GI50 (786-0 renal): 0.0903 µM
- TGI (786-0 renal): 6.87 µM
- GI50 (SNB-19 CNS): 0.0375 µM
- TGI (SNB-19 CNS): 16.8 µM
- GI50 (KM12 colon): < 0.01 µM
- TGI (KM12 colon): 14.1 µM
- GI50 (CCRF-CEM leukemia): < 0.01 µM
- TGI (CCRF-CEM leukemia): 12.2 µM
- GI50 (U251 CNS): < 0.01 µM
- TGI (U251 CNS): 12.9 µM
- GI50 (SK-MEL-2 melanoma): 2.23 µM
- TGI (SK-MEL-2 melanoma): 6.56 µM
- GI50 (DU-145 prostate): < 0.01 µM
- TGI (DU-145 prostate): 0.0621 µM
- GI50 (SN12C renal): 0.124 µM
- TGI (SN12C renal): 15 µM
- GI50 (SF-295 CNS): 0.0491 µM
- TGI (SF-295 CNS): 3.51 µM
- GI50 (MCF7 breast): < 0.01 µM
- TGI (MCF7 breast): 10.5 µM
- GI50 (SK-MEL-5 melanoma): < 0.0311 µM
- TGI (SK-MEL-5 melanoma): 1.28 µM
- GI50 (MOLT-4 leukemia): < 0.01 µM
- TGI (MOLT-4 leukemia): 1.79 µM
- GI50 (CAKI-1 renal): 1.86 µM
- TGI (CAKI-1 renal): 12.2 µM
- GI50 (HL-60(TB) leukemia): < 0.01 µM
- TGI (HL-60(TB) leukemia): 0.0223 µM
- GI50 (LOX IMVI melanoma): < 0.0167 µM
- TGI (LOX IMVI melanoma): 2.37 µM
- GI50 (MDA-MB-231 breast): < 0.0186 µM
- TGI (MDA-MB-231 breast): 17.3 µM
- GI50 (OVCAR-3 ovarian): < 0.01 µM
- TGI (OVCAR-3 ovarian): 3.9 µM
- GI50 (HCT-15 colon): 0.468 µM
- TGI (HCT-15 colon): 13.7 µM
- GI50 (TK-10 renal): 1.39 µM
- TGI (TK-10 renal): 14.4 µM
- TGI (IGROV1 ovarian): 16.8 µM
- GI50 (OVCAR-4 ovarian): 0.264 µM
- TGI (OVCAR-4 ovarian): 12.5 µM
- GI50 (RXF 393 renal): 0.054 µM
- TGI (RXF 393 renal): 11.8 µM
- GI50 (SF-268 CNS): 0.0487 µM
- TGI (SF-268 CNS): 12.5 µM
- GI50 (ACHN renal): 0.542 µM
- TGI (ACHN renal): 14.9 µM
- GI50 (MALME-3M melanoma): 2.64 µM
- TGI (MALME-3M melanoma): 10.5 µM
- GI50 (HCC-2998 colon): < 0.0166 µM
- TGI (HCC-2998 colon): 2.2 µM
- GI50 (HCT-116 colon): < 0.0118 µM
- TGI (HCT-116 colon): 11.2 µM
- GI50 (NCI/ADR-RES ovarian): 0.964 µM
- TGI (NCI/ADR-RES ovarian): 15.7 µM
- GI50 (A549 NSCLC): < 0.0193 µM
- TGI (A549 NSCLC): 4.38 µM
- GI50 (HS 578T breast): 0.0585 µM
- TGI (HS 578T breast): 1.53 µM
- GI50 (SF-539 CNS): 0.0215 µM
- TGI (SF-539 CNS): 5.13 µM
- GI50 (SNB-75 CNS): 0.0198 µM
- TGI (SNB-75 CNS): 16.1 µM
- GI50 (HT29 colon): < 0.01 µM
- TGI (HT29 colon): 11.1 µM
- GI50 (SK-MEL-28 melanoma): 0.0293 µM
- TGI (SK-MEL-28 melanoma): 12.1 µM
- GI50 (PC-3 prostate): < 0.0249 µM
- TGI (PC-3 prostate): 21.4 µM
- GI50 (NCI-H460 lung): < 0.0152 µM
- TGI (NCI-H460 lung): 11.6 µM
- GI50 (HOP-62 NSCLC): < 0.0167 µM
- TGI (HOP-62 NSCLC): 2.61 µM
- GI50 (UACC-257 melanoma): 0.222 µM
- TGI (UACC-257 melanoma): 6.61 µM
- GI50 (OVCAR-8 ovarian): < 0.01 µM
- TGI (OVCAR-8 ovarian): 18.3 µM
- GI50 (OVCAR-5 ovarian): 0.0188 µM
- TGI (OVCAR-5 ovarian): 12.1 µM
- GI50 (UACC-62 melanoma): < 0.0246 µM
- TGI (UACC-62 melanoma): 5.84 µM
- GI50 (BT-549 breast): 0.0989 µM
- TGI (BT-549 breast): 15.5 µM
- GI50 (NCI-H522 lung): 0.0129 µM
- TGI (NCI-H522 lung): 2.92 µM
- GI50 (UO-31 renal): 1.66 µM
- TGI (UO-31 renal): 12.9 µM
- GI50 (HOP-92 NSCLC): 0.1 µM
- TGI (HOP-92 NSCLC): 1.7 µM
- GI50 (M14 melanoma): < 0.0148 µM
- TGI (M14 melanoma): 5.09 µM
- GI50 (T-47D breast): 0.177 µM
- TGI (T-47D breast): 12.6 µM
- GI50 (NCI-H226 lung): 2.17 µM
- TGI (NCI-H226 lung): 14.3 µM
- GI50 (K-562 leukemia): < 0.01 µM
- TGI (K-562 leukemia): 4.86 µM
- GI50 (A498 renal): 0.028 µM
- TGI (A498 renal): 0.272 µM
- GI50 (NCI-H23 lung): < 0.0114 µM
- TGI (NCI-H23 lung): 2.98 µM

— PubChem BioAssay (NCI)
